From US4892813A, “Method for the determination of the enzymatic activity of convertase” (Centre National de la Recherche Scientifique, priority 1987, dated 1990)
Where no end group is shown, it is not given here.

What was measured:
Assay type in all cases: biochemical, rat
somatostatin convertase [1] = test: Competition of peptides with iodinated peptide I in the enzymatic conversion by somatostatin convertase; settings: 1 μl of each peptide or 2 μg of somatostatin 28; ^125 I peptide I (30,000 cpm), pH 7, 37° C., 2 hours; 0% = maximum conversion of peptide I to peptide II
Experimental: The ability of several analogous peptides to compete with the peptide I in the enzymatic conversion was evaluated by means of competition experiments. The results given in the table which follows indicate that either the peptide of 28 AA (S-28) or the noniodinated substrate of II AA (deiodinated peptide I) competed effectively (75% and 85% respectively) with the iodinated peptide I. It is interesting to observe that simple replacement of Lys with Arg in the dibasic doublet (cleavage site) produced a peptide III, which competed with the iodinated substrate (peptide I) with an efficacy of only 30%.
The enzyme prepared from the Sephadex G150 column was incubated in a
mixture containing either 1 μl of each of the peptides described above
or 2 μg of somatostatin 28 and ^125 IPeptide I (30,000 cpm) in a
buffer solution of TrisHCl (pH 7) at 37° C. for 2 hours. 0%
inhibition corresponds to a maximum conversion of the peptide I to the […]

undesirable activity = test: Conversion of iodine-125-labeled peptide I by brain extracts, undesirable activity (% of Asn-^125 I-Tyr(NH2) generated); settings: molecular sieve fraction, peptide I (20,000 cpm), 2 hours, % of starting materials
Experimental: (§1) Male Wistar rats (100-120 g) were sacrificed by quick decapitation and the cerebral cortex was removed immediately. The fresh dissected tissue was homogenized in a Potter Elvehjem apparatus in a buffer solution of phosphate (pH 7.4) at a concentration of 50 mM and potassium chloride at a concentration of 200 mM (5 ml of buffer per cortex).
(§2) The extract was then centrifuged at 3000×g for 15 minutes and the supernatant was filtered on a Sephadex G-150 column in 0.25M Tris-HCl (pH 7).
(§3) The proteolytic activities were tested in the following way. The peptide I labeled with iodine 125 (20,000 cpm), dissolved in 10 μl of 250 mM Tris-HCl (pH 7), was incubated at 37° C. with an aliquot either of crude extract of rat cerebral cortex or of fractions derived from gel filtration or derived from ion exchange chromatography (final volume of 300 μl in 0.25M Tris-HCl (pH 7)).
(§4) 50 μl samples of the mixture were taken at different times during the reaction and the reaction was stopped by the addition of 600 μl of CM-52 resin in 30 mM ammonium acetate (pH 6) (1:10, vol./vol.). The mixture was then centrifuged at 10,000×g for 30 seconds on a Beckman microcentrifuge. […] After the second washing by elution at each of its saline concentrations, the iodinated products retained on the resin were counted.
(§5) The results were calculated as follows: [formula] where the specific activity represents the percentage of peptides II generated, the undesirable activity represents the percentage of Asn-^125 I-Tyr(NH2) generated, t is the total cpm in 50 μl of the mixture, x1 is the cpm found after washing with the 30 mM ammonium acetate, x2 is the cpm found after washing with the 100 mM ammonium acetate, and y1 and y2 are the cpm values found respectively after the 30 mM and 100 mM washings of the resin with the peptide I by itself.
(§6) The extracts were obtained from three regions of the brain and were fractionated by filtration on a molecular sieve. A 50 μl aliquot corresponding to an activity peak was incubated with the peptide I (20,000 cpm) for 2 hours and the products were analyzed by ion exchange.

somatostatin convertase [2] = test: Conversion of iodine-125-labeled peptide I by brain extracts, specific activity (% of peptide II generated); settings: molecular sieve fraction, peptide I (20,000 cpm), 2 hours, % of starting materials
Experimental: as §1, §2, §3, §4, §5, §6

PRERKAGAKNY-NH2 [De^125 IPeptide I]
% inhibition of the conversion activity (competition with iodinated peptide I) (somatostatin convertase [1]): 85%

Asn-^125 I-Tyr(NH2)
% of products generated, Asn-^125 I-Tyr(NH2) (undesirable activity; Hypothalamus extract): 90% | % of products generated, Asn-^125 I-Tyr(NH2) (undesirable activity; Neocortex extract): 40% | % of products generated, Asn-^125 I-Tyr(NH2) (undesirable activity; Pituitary gland extract): 37%

Ala-Gly-Ala-Lys-Asn-Tyr(NH2)* [Peptide II]
% of products generated, Peptide II labeled with 125I (somatostatin convertase [2]; Hypothalamus extract): 7% | % of products generated, Peptide II labeled with 125I (somatostatin convertase [2]; Neocortex extract): 18% | % of products generated, Peptide II labeled with 125I (somatostatin convertase [2]; Pituitary gland extract): 20%

Somatostatin 28: direct precursor of somato 14, a peptide consisting of 28 AA [reference compound]
% inhibition of the conversion activity (competition with iodinated peptide I) (somatostatin convertase [1]): 75%
